Measured values from patent publication US20100216703A1, “Inhibitors of PDE4 and Methods of Use” (THE REGENTS OF THE UNIVERSITY OF CALIFORNIA, priority 2006, published 2010).
“Also recorded” adds a separate entry of the source.

How the values were obtained:
[1] = tested on: wt and p75NTR−/− SCs; assay: Quantification of tPA activity in primary Schwann cells; format: cell-based, mouse; conditions: 10 μM forskolin, 100 ng/ml NGF, 50 ng/ml BDNF, 16 h
Description: (§1) Quantification of tPA and uPA activity in SC and fibroblast in lysates and supernatants was performed according to the directions of the activity assay kits from American Diagnostica and Chemicon, respectively. To elevate cAMP cells were treated either with 2 mM db-cAMP (Sigma-Aldrich) or with 10 μM forskolin (Sigma-Aldrich) for 16 h. To block PKA activity, cells were treated with 200 nM KT5720 (Calbiochem).
Murine SCs were isolated as described previously (Syroid et al., 2000). NIH3T3 or HEK293 cells were cotransfected either with p75NTR FL, ICD or deletion constructs, and PDE4A5 cDNAs using Lipofectamine 2000 (Invitrogen) as described in the Results section. CGNs were isolated from P10 animals (Yamashita and Tohyama, 2003). CGNs were lysed immediately for co-IP, without plating. siRNA directed against p75NTR (Dharmacon; SMART Pool reagent, Cat. M-080041-00; Cat. M-009340) was transfected into SCs and NIH3T3p75NTR cells using Dharmafect (Dharmacon).

[2] = tested on: NIH3T3p75NTR cells; assay: Competitive binding cAMP ELISA; format: cell-based; conditions: for intracellular cAMP levels in NIH3T3p75NTR cells: 16 h, PTX 100 ng/ml, IBMX 500 μM, PDE1 inh. 18.7 μM, EHNA 80 μM, trequinsin 100 nM, rolipram 10 μM, PDE5 inh. 23 μM
Description: […] fibroblasts or 500,000 SCs were lysed in 0.1 N HCl solution and cAMP was measured using a competitive binding cAMP ELISA (Assay Designs). Cells were treated with 100 ng/ml PTX for 16 h. […] Cells were treated with forskolin in the presence of the inhibitors for 1 h. […] For the qualitative and quantitative PKA assay (Promega), cells were treated with 10 μM forskolin for 30 min, lysed in 1% NP-40 buffer with 150 mM NaCl, 50 mM Tris, and 1 mM EGTA, and protein concentration was determined using the Bradford Assay (Bio-Rad Laboratories). 1 μg was loaded into the PKA assay reaction mix according to the manufacturer's protocol (Promega).

[3] = tested on: NIH3T3p75NTR cells; assay: Fibrin degradation assay on 3D fibrin gel; format: cell-based; conditions: 2 mM db-cAMP
Description: as §1
(§2) Coating with fibrin was prepared as described previously (Lansink et al., 1998). To quantitate fibrin degradation, the supernatant was aspirated and the remaining gel was weighed using an analytical balance. Decrease of gel weight corresponded to increased fibrin gel degradation.

[4] = tested on: NIH3T3 cells; assay: Quantification of tPA activity; format: cell-based; conditions: 10 μM forskolin 16 h; 200 nM KT5720; IBMX
Description: as §1

[5] = tested on: NIH3T3p75NTR cells; assay: Quantification of tPA activity; format: cell-based; conditions: 10 μM forskolin 16 h; 200 nM KT5720; IBMX; rolipram
Description: as §1

[6] = tested on: NIH3T3 cells; assay: RT-PCR / real-time PCR of tPA and PAI-1 RNA; format: cell-based
Description: RT-PCR was performed as described previously (Akassoglou et al., 2002). Primers for tPA, uPA, and PAI-1 genes were used as described previously (Yamamoto and Loskutoff, 1996). Real-time PCR was performed using the Opticon DNA Engine 2 (MJ Research) and the Quantitect SYBR Green PCR kit (QIAGEN). Results were analyzed with Opticon 2 software using the comparative Ct method as described previously (Livak and Schmittgen, 2001). Data were expressed as ΔΔCt for the tPA gene normalized against GAPDH.

[7] = molecular target: T1, tPA (Mus musculus, UniProt P11214); assay: In situ zymography of crushed sciatic nerve; format: biochemical; conditions: injured sciatic nerve of p75NTR−/− mice, in the presence of plasminogen
T1 construct: from tissue; host or cells: crushed sciatic nerve of p75NTR-/- mice (C57Bl/6 background)
Description: In situ zymographies were performed as described previously (Akassoglou et al., 2000). Quantification of in situ zymographies was performed by measuring the area of the lytic zone surrounding each nerve, and dividing that value by the area of the nerve. Images were collected after 8 h of incubation for the sciatic nerve and 4 h of incubation for the lung. For cell zymographies, cultures were washed four times with PBS/BSA and overlaid with 200 μl of Dulbecco's […] medium containing 1% LMP agarose, 2.5% boiled nonfat milk, and 25 μg/ml human plasminogen. The overlay was allowed to harden, and plates were incubated in a cell culture incubator at 37° C. Pictures of lytic zones were taken using an inverted microscope under dark field (Carl Zeiss Microlmaging, Inc.).

[8] = tested on: NIH3T3 cells; assay: Fibrin degradation assay on 3D fibrin gel; format: cell-based
Description: as §2

[9] = molecular target: p75 neurotrophin receptor (p75NTR), stably expressed in NIH3T3p75NTR cells

T1 sequence (P11214 33-559): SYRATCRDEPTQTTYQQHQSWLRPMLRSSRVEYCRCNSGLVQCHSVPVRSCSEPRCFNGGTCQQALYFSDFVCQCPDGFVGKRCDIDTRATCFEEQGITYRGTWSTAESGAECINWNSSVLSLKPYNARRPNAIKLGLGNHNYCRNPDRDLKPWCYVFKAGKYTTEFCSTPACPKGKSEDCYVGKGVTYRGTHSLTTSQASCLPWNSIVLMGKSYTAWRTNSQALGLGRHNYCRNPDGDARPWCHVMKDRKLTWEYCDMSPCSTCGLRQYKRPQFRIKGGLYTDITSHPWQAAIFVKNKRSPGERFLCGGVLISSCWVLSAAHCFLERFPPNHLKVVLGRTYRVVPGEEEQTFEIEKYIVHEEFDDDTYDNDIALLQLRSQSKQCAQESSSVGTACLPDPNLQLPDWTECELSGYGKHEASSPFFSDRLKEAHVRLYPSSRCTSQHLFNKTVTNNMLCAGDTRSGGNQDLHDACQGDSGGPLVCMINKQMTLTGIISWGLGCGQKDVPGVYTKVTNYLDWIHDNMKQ

## NGF: nerve growth factor
[1]
  tPA activity in SCs: do not affect activity of tPA; also recorded: has no effect on tPA
[2]; 100 ng/ml NGF, 50 ng/ml BDNF, 750 ng/ml FcTrkB, 1.35 ug/ml Fcp75NTR, 1 h
  intracellular cAMP levels in NIH3T3p75NTR cells, neurotrophins or their inhibition: does not affect the p75NTR-mediated suppression of cAMP

## CCCC(=O)Nc1ncnc2c1ncn2[C@@H]1O[C@@H]2COP(=O)(O)O[C@H]2[C@H]1OC(=O)CCC [db-cAMP, dibutyryl-cAMP]
[3]
  fibrinolysis in NIH3T3p75NTR cells: induces fibrinolysis; also recorded: overcomes the inhibitory effect of p75NTR

## COc1cc2c(cc1OC)-c1c/c(=N\c3c(C)cc(C)cc3C)n(C)c(=O)n1CC2 [trequinsin]
[2]
  intracellular cAMP levels in NIH3T3p75NTR cells: only IBMX (P<0.0001) and rolipram (P<0.0001) increase

## COCc1nc2c([nH]1)c(=O)n(C)c(=O)n2CC(C)C [8-Methoxymethyl-IBMX, 8-methoxymethyl-3-isobutyl-1-methylxanthine]
[2]
  intracellular cAMP levels in NIH3T3p75NTR cells: only IBMX (P<0.0001) and rolipram (P<0.0001) increase

## CCCCCCOC(=O)[C@]1(O)C[C@@H]2O[C@@]1(C)n1c3ccccc3c3c4c(c5c6ccccc6n2c5c31)C(=O)NC4 [KT5720]
[4]
  tPA activity in NIH3T3 cells: decrease of tPA activity; also recorded: decreases tPA activity
[5]
  tPA activity in NIH3T3p75NTR cells: decrease of tPA activity
[6]
  tPA mRNA in NIH3T3 cells: decreases tPA transcript; also recorded: decreases tPA RNA

## CCCCCC[C@@H]([C@@H](C)O)n1cnc2c(N)ncnc21 (racemic) [EHNA, erythro-9-(2-Hydroxy-3-nonyl)adenine]
[2]
  intracellular cAMP levels in NIH3T3p75NTR cells: only IBMX (P<0.0001) and rolipram (P<0.0001) increase

## Cl.Cl.N=C(N)c1ccc(C=C2CCCCC(=Cc3ccc(C(=N)N)cc3)C2=O)cc1 [tPASTOP]
[7]
  proteolytic activity (in situ zymography): blocks proteolytic activity

## Aprotinin
[8]
  fibrin degradation by NIH3T3 cells: completely inhibits fibrin degradation

## pertussis toxin [PTX]
[2]
  intracellular cAMP levels in NIH3T3p75NTR cells: does not rescue the p75NTR-mediated down-regulation of cAMP; also recorded: only IBMX (P<0.0001) and rolipram (P<0.0001) increase

## COc1ccc2ncnc(NCc3ccc4c(c3)OCO4)c2c1 [4-{[3′,4′-(Methylenedioxy)benzyl]amino}-6-methoxyquinazoline]
[2]
  intracellular cAMP levels in NIH3T3p75NTR cells: only IBMX (P<0.0001) and rolipram (P<0.0001) increase

B1: endogenous PDE4A5 (PDE4A, 109 kD) of NIH3T3p75NTR cells (protein)
chain: MEPPAAPSERSLSLSLPGPREGQATLKPPPQHLWRQPRTPIRIQQRGYSDSAERSEPERSPHRPIERADAVDTGDRPGLRTTRMSWPSSFHGTGTGGGSSRRLEAENGPTPSPGRSPLDSQASPGLMLHAGAATSQRRESFLYRSDSDYDMSPKTMSRNSSVASEAHGEDLIVTPFAQVLASLRNVRSNFSLLTNVPIPSNKRSPLGGPPSVCKATLSEETCQQLARETLEELDWCLEQLETMQTYRSVSEMASHKFKRMLNRELTHLSEMSRSGNQVSEYISNTFLDKQHEVEIPSPTPRQRPFQQPPPAAVQQAQPMSQITGLKKLVHTGSLNINVPRFGVKTDQEDLLAQELENLSKWGLNIFCVSEYAGGRSLSCIMYTIFQERDLLKKFHIPVDTMMTYMLTLEDHYHADVAYHNSLHAADVLQSTHVLLATPALDAVFTDLEILAALFAAAIHDVDHPGVSNQFLINTNSELALMYNDESVLENHHLAVGFKLLQEENCDIFQNLSKRQRQSLRKMVIDMVLATDMSKHMTLLADLKTMVETKKVTSSGVLLLDNYSDRIQVLRNMVHCADLSNPTKPLELYRQWTDRIMAEFFQQGDRERERGMEISPMCDKHTASVEKSQVGFIDYIVHPLWETWADLVHPDAQDILDTLEDNRDWYHSAIRQSPSPTLEEEPGVLSDPALPDKFQFELTLEEEDEEDSLEVPGLPCTEETLLAPHDTRAQAMEQSKVKGQSPAVVEVAESLKQETASAHGAPEESAEAVGHSFSLETSILPDLRTLSPSEEAQGLLGLPSMAAEVEAPRDHLAAMRACSACSGTSGDNSAVISAPGRWGSGGDPA
[9]
  FRET emission ratio change of pm-AKAR2.2 in response to forskolin (membrane-associated PKA activity): NIH3T3p75NTR cells show an attenuated response, revealing reduced PKA activity at the plasma membrane

B2: BDNF: Brainderived neurotrophic factor (protein, UniProt P23560 19-247, looked up)
Neurotrophic factor BDNF …: APMKEANIRGQGGLAYPGVRTHGTLESVNGPKAGSRGLTSLADTFEHVIEELLDEDQKVRPNEENNKDADLYTSRVMLSSQVPLEPPLLFLLEEYKNYLDAANMSMRVRRHSDPARRGELSVCDSISEWVTAADKKTAVDMSGGTVTVLEKVPVSKGQLKQYFYETKCNPMGYTKEGCRGIDKRHWNSQCRTTQSYVRALTMDSKKRIGWRFIRIDTSCVCTLTIKRGR
[1]
  tPA activity in SCs: do not affect activity of tPA; also recorded: has no effect on tPA
